# Tests used:
# S. epidermidis 6098 = experiment: MIC, Macro-broth dilution method; format: cell-based, Staphylococcus epidermidis
# Text: (§1) The in-vitro potency was established by minimum inhibitory concentration (MIC) determinations of the compound PM181104 against bacterial strains, by using the Macro-broth dilution method as per National Committee for Clinical Laboratory Standards (2000) guidelines [Journal of Anti-microbial Chemotherapy, 2002, 50, 125-128 (Cross Reference 8: Methods for Dilution Antimicrobial Susceptibility Tests for Bacteria that Grow Aerobically-Fifth Edition: Approved Standard M7-A5. NCCLS, Wayne, Pa., USA)]. Unless stated otherwise, Mueller-Hinton broth was used as nutrient medium for the assay. Linezolid (manufactured by Glenmark Pharma Ltd; Batch no: K2005028) was used as known standard in all in-vitro experiments. For preparation of the stock solution the compound PM181104 was dissolved in chloroform (5% of the total required volume) and diluted using methanol (95% of the total required volume).
# S. epidermidis 823 = experiment: MIC, Macro-broth dilution method; format: cell-based, Staphylococcus epidermidis
# Text: as §1
# S. epidermidis 10221II W = experiment: MIC, Macro-broth dilution method; format: cell-based, Staphylococcus epidermidis
# Text: as §1
# S. epidermidis Pat 01 IV = experiment: MIC, Macro-broth dilution method; format: cell-based, Staphylococcus epidermidis
# Text: as §1
# [1] = system: S. epidermidis 6493II(2)W; experiment: MIC, Macro-broth dilution method; format: cell-based, Staphylococcus epidermidis
# Text: as §1
# S. epidermidis 5744IW = experiment: MIC, Macro-broth dilution method; format: cell-based, Staphylococcus epidermidis
# Text: as §1
# S. epidermidis 32965 = experiment: MIC, Macro-broth dilution method; format: cell-based, Staphylococcus epidermidis
# Text: as §1
# E. faecium (VR-1) = experiment: MIC, Macro-broth dilution method; format: cell-based, Enterococcus faecium
# Text: as §1
# E. faecium D 18F = experiment: MIC, Macro-broth dilution method; format: cell-based, Enterococcus faecium
# Text: as §1
# E. faecium 4045H = experiment: MIC, Macro-broth dilution method; format: cell-based, Enterococcus faecium
# Text: as §1
# E. faecium (O2-D3IP1) = experiment: MIC, Macro-broth dilution method; format: cell-based, Enterococcus faecium
# Text: as §1
# E. faecium D-59 = experiment: MIC, Macro-broth dilution method; format: cell-based, Enterococcus faecium
# Text: as §1
# [2] = system: Streptococcus durans 4939 (1) H; experiment: MIC, Macro-broth dilution method; format: cell-based
# Text: as §1
# E. faecalis 4073H = experiment: MIC, Macro-broth dilution method; format: cell-based
# Text: as §1
# Klebsiella pneumoniae = experiment: MIC, Macro-broth dilution method; format: cell-based
# Text: as §1
# Streptococcus hirae 55 = experiment: MIC, Macro-broth dilution method; format: cell-based
# Text: as §1
# Enterococci KEM-VRE26 = experiment: MIC, Macro-broth dilution method; format: cell-based
# Text: as §1
# Salmonella typhi Para A = experiment: MIC, Macro-broth dilution method; format: cell-based
# Text: as §1
# Enterococci KEM-VRE27 = experiment: MIC, Macro-broth dilution method; format: cell-based
# Text: as §1
# [3] = system: Streptococcus equinus 02 D5 Gr1; experiment: MIC, Macro-broth dilution method; format: cell-based
# Text: as §1
# Enterococci KEM-VRE29 = experiment: MIC, Macro-broth dilution method; format: cell-based
# Text: as §1
# E. faecalis (FH-1) = experiment: MIC, Macro-broth dilution method; format: cell-based
# Text: as §1
# E. faecalis (uD.8b) = experiment: MIC, Macro-broth dilution method; format: cell-based
# Text: as §1
# E. coli SS = experiment: MIC, Macro-broth dilution method; format: cell-based
# Text: as §1
# Enterococci KEM-VRE28 = experiment: MIC, Macro-broth dilution method; format: cell-based
# Text: as §1
# [4] = system: Citrobacter diversus 2046 E; experiment: MIC, Macro-broth dilution method; format: cell-based
# Text: as §1
# S. aureus E-710 = experiment: Lung infection model; format: in vivo, Balb/C mice; details: 5 mg/kg intravenously at 24 and 36 hours post infection, lungs collected at 48 hours
# Text: The in-vivo potency was established by protection dose (PD) determinations of the compound PM181104 for its antibiotic activity in three animal models using either male or female Balb/C mice.
# The models used were the general purpose efficacy testing models and organ/tissue specific efficacy testing models. The general purpose efficacy testing models used were systemic infection model (septicemia), and localized infection model (neutropenic thigh model). The Organ/Tissue specific infection models used for efficacy testing were kidney, lung infection, and skin abscess model.
# Balb/C mice were rendered neutropenic by intraperitoneally administering 200 mg/kg cyclophosphamide four days and two days prior to infection. On the day of infection, the mice were anesthetized and infected with S. aureus E-710 log-phase culture suspension having bacterial density of approximately 10^6 to 10^7 cfu/ml. 24 and 36 hours post infection the first and second respective dose of drug was administered intravenously. 48 hours post infection, the animals were humanely euthanized and their lungs were aseptically collected to determine the viable count of bacteria. In this model, PM181104 was tested at 5 mg/kg dose prepared in cremophor-ethanol formulation as described in example 14. Two standard antibiotics viz. Linezolid (80 mg/kg single dose at 24 hours post infection) and Vancomycin (110 mg/kg, two doses at 24 and 48 hours post infection) were used as positive controls.
# S. aureus KEM-MRSA7 = experiment: MIC, Macro-broth dilution method; format: cell-based, Staphylococcus aureus
# Text: as §1
# S. aureus wien8 = experiment: MIC, Macro-broth dilution method; format: cell-based, Staphylococcus aureus
# Text: as §1
# S. aureus ATCC29213 = experiment: MIC, Macro-broth dilution method; format: cell-based, Staphylococcus aureus
# Text: as §1
# S. aureus KEM-MRSA1 = experiment: MIC, Macro-broth dilution method; format: cell-based, Staphylococcus aureus
# Text: as §1
# S. aureus KEM-MRSA11 = experiment: MIC, Macro-broth dilution method; format: cell-based, Staphylococcus aureus
# Text: as §1
# S. aureus Bom-MRSA2 = experiment: MIC, Macro-broth dilution method; format: cell-based, Staphylococcus aureus
# Text: as §1
# S. aureus KEM-MRSA19 = experiment: MIC, Macro-broth dilution method; format: cell-based, Staphylococcus aureus
# Text: as §1
# S. aureus (789) = experiment: MIC, Macro-broth dilution method; format: cell-based, Staphylococcus aureus
# Text: as §1
smiles,measurement,setting,value
C=C(NC(=O)C(=C)NC(=O)C1CCCN1C(=O)c1nc(-c2ccc(-c3nc(C(=O)NC(=C)C(=O)NC(C)C(N)=O)cs3)c(-c3csc(C4Cc5nc(cs5)C(=O)NC(Cc5ccccc5)C5=NC(CS5)C(=O)NC(Cc5ccc(O)cc5)C(=O)N5CCCC5c5nc(cs5)C(=O)N4)n3)n2)oc1C)C(N)=O (stereo not drawn) [PM181104],MIC,S. epidermidis 6098,0.0625 µg/mL
same,MIC,S. epidermidis 823,0.03125 µg/mL
same,MIC,S. epidermidis 10221II W,0.00781 µg/mL
same,MIC,S. epidermidis Pat 01 IV,0.0625 µg/mL
same,MIC,[1],0.0625 µg/mL
same,MIC,S. epidermidis 5744IW,0.01563 µg/mL
same,MIC,S. epidermidis 32965,0.03125 µg/mL
same,MIC,E. faecium (VR-1),0.00781 µg/mL
same,MIC,E. faecium D 18F,0.00781 µg/mL
same,MIC,E. faecium 4045H,0.00781 µg/mL
same,MIC,E. faecium (O2-D3IP1),0.00391 µg/mL
same,MIC,E. faecium D-59,0.00781 µg/mL
same,MIC,[2],0.00781 µg/mL
same,MIC,E. faecalis 4073H,0.00781 µg/mL
same,MIC,Klebsiella pneumoniae,>1 µg/mL
same,MIC,Streptococcus hirae 55,0.00391 µg/mL
same,MIC,Enterococci KEM-VRE26,0.00781 µg/mL
same,MIC,Salmonella typhi Para A,>1 µg/mL
same,MIC,Enterococci KEM-VRE27,0.00391 µg/mL
same,MIC,[3],0.01563 µg/mL
same,MIC,Enterococci KEM-VRE29,0.00391 µg/mL
same,MIC,E. faecalis (FH-1),0.00391 µg/mL
same,MIC,E. faecalis (uD.8b),0.00391 µg/mL
same,MIC,E. coli SS,>1 µg/mL
same,MIC,Enterococci KEM-VRE28,0.00781 µg/mL
same,MIC,[4],>1 µg/mL
same,activity profile in lung infection,S. aureus E-710,bacteriostatic activity
same,difference in the bacterial count in the lungs as compared to untreated control animals,S. aureus E-710,approximately 2 log
same,MIC,S. aureus KEM-MRSA7,0.01563 µg/mL
same,MIC,S. aureus wien8,0.01563 µg/mL
same,MIC,S. aureus ATCC29213,0.03125 µg/mL
same,MIC,S. aureus KEM-MRSA1,0.03125 µg/mL
same,MIC,S. aureus KEM-MRSA11,0.0625 µg/mL
same,MIC,S. aureus Bom-MRSA2,0.0625 µg/mL
same,MIC,S. aureus KEM-MRSA19,0.00781 µg/mL
same,MIC,S. aureus (789),0.00781 µg/mL

# — patent publication US8003602B2 (priority 2006, dated 2011)
